This note sets out measurements from US20240252450A1, “TREATMENT FOR EPILEPTIC SEIZURES” (priority 2021, published 2024).

The test system of the data set is epileptic seizures. As to the kind of experiment: Clinical treatment of the inventor's child with mixed epileptic seizure types (case report). Type of data set: in vivo, human. Conditions: for effect on the child's epileptic seizures: onset, hundreds of seizures a day, substance given without cannabis extract. From the text: The inventor has a child, who, experienced an abrupt onset of hundreds of absence seizures a day that developed into mixed epileptic seizure types, including absence, focal, atonic, myoclonic-atonic, tonic, and eventually a 10-hour status epilepticus seizure. The Inventor was told their child would die in their sleep from SUDEP and no medication will be able to treat them. […] The child is […] now and has developed normally.

In the case of `C=C(C)[C@@H]1CCC(C)=C[C@H]1c1c(O)cc(CCCCC)cc1O` [CBD, cannabidiol], the “effect on the child's epileptic seizures” value was “neither did CBD alone”.

In the case of `CC[C@@H](C(N)=O)N1CCCC1=O` [Keppra, Levetiracetam], the “effect on the child's epileptic seizures” value is “reduced the frequency of the seizures but could not fully control them”. For the setting “child with intractable seizures, Keppra without cannabis extract”, the side effects result is “side effects of nausea and “Keppra rage””.
